Experiments:
Hepatitis C virus = assay: Antiviral activity against Hepatitis C virus 1b con1 infected in human hepatoma cells assessed as decrease in replicon RNA level after 3 days by RT-PCR analysis; format: functional, organism-based, Hepacivirus hominis; settings: Con1, 72 h
[1] = Cytotoxicity against human hepatoma cells after 3 days by MTS assay; format: cell-based
[2] = Cytotoxicity against human hepatoma cells assessed as decrease in GAPDH RNA level after 3 days by RT-PCR analysis; format: cell-based
[3] = AUC (0 to 6 hrs) in rat at 10 mg/kg, po; format: ADME, organism-based; design: time < 6 hr, dose 10 mg/kg, route oral; settings: plasma
Liver = assay: Drug uptake in rat liver assessed per gram of tissue at 10 mg/kg, po measured at 6 hrs; format: ADME, organism-based; design: dose 10 mg/kg, route oral; settings: in vivo

SMILES | EC50 (Hepatitis C virus) [µM] | CC50 at 72 h [1] [µM] | CC50 at 72 h [2] [µM] | AUC(0-t) at 6 h [3] [µM·h] | liver concentration (Liver) [ng/g]
Nc1nc(Cl)c(-c2cc3ncccc3o2)c(N[C@@H]2C[C@H](CO)[C@@H](O)[C@H]2O)n1 | > 25 | 21 |  |  | 
Nc1nc(Cl)c(-c2cc3cnccc3o2)c(N[C@@H]2C[C@H](CO)[C@@H](O)[C@H]2O)n1 | 1.7 | 25 |  |  | 
Nc1nc(Cl)c(-c2cc3ccncc3o2)c(N[C@@H]2C[C@H](CO)[C@@H](O)[C@H]2O)n1 | 0.07 | 25 | 25 |  | 
Nc1nc(Cl)c(-c2cc3cccnc3o2)c(N[C@@H]2C[C@H](CO)[C@@H](O)[C@H]2O)n1 | 0.4 | 19 |  |  | 
Cc1cncc2oc(-c3c(Cl)nc(N)nc3N[C@@H]3C[C@H](CO)[C@@H](O)[C@H]3O)cc12 | 1.4 | > 25 | 25 |  | 
Cc1cc2cc(-c3c(Cl)nc(N)nc3N[C@@H]3C[C@H](CO)[C@@H](O)[C@H]3O)oc2cn1 | 0.03 | 25 | 9 |  | 
CCc1cc2cc(-c3c(Cl)nc(N)nc3N[C@@H]3C[C@H](CO)[C@@H](O)[C@H]3O)oc2cn1 | 0.01 | 22 | 12 |  | 
Cc1nccc2cc(-c3c(Cl)nc(N)nc3N[C@@H]3C[C@H](CO)[C@@H](O)[C@H]3O)oc12 | 0.12 | > 25 | > 25 |  | 
CCc1nccc2cc(-c3c(Cl)nc(N)nc3N[C@@H]3C[C@H](CO)[C@@H](O)[C@H]3O)oc12 | 0.02 | 24 | 19 |  | 
Cc1cc2cc(-c3c(Cl)nc(N)nc3N[C@@H]3C[C@H](CO)[C@@H](O)[C@H]3O)oc2c(C)n1.Cl | 0.01 | 22 | 15 | 0.01 | 
CCc1cc2cc(-c3c(Cl)nc(N)nc3N[C@@H]3C[C@H](CO)[C@@H](O)[C@H]3O)oc2c(C)n1 | 0.01 | 16 | 13 |  | 
CCc1nc(C)cc2cc(-c3c(Cl)nc(N)nc3N[C@@H]3C[C@H](CO)[C@@H](O)[C@H]3O)oc12 | 0.03 | 20 | 9 |  | 
CCc1cc2cc(-c3c(Cl)nc(N)nc3N[C@@H]3C[C@H](CO)[C@@H](O)[C@H]3O)oc2c(CC)n1 | 0.02 | 16 | 25 |  | 
COc1cc2cc(-c3c(Cl)nc(N)nc3N[C@@H]3C[C@H](CO)[C@@H](O)[C@H]3O)oc2c(C)n1 | 0.01 | 25 |  |  | 
CCc1cc2cc(-c3c(C)nc(NC)nc3N[C@@H]3C[C@H](CO)[C@@H](O)[C@H]3O)oc2cn1 | 0.03 | > 25 | > 25 |  | 
CCCCCNc1nc(C)c(-c2cc3cc(CC)ncc3o2)c(N[C@@H]2C[C@H](CO)[C@@H](O)[C@H]2O)n1 | 0.03 | 3 | 3 |  | 
CCc1cc2cc(-c3c(C)nc(NCC(C)C)nc3N[C@@H]3C[C@H](CO)[C@@H](O)[C@H]3O)oc2cn1 | 0.08 | 12 | 7 |  | 
CCc1cc2cc(-c3c(C)nc(NCC(C)(C)C)nc3N[C@@H]3C[C@H](CO)[C@@H](O)[C@H]3O)oc2cn1 | 0.03 | 11 | 10 |  | 
CCOCCNc1nc(C)c(-c2cc3cc(CC)ncc3o2)c(N[C@@H]2C[C@H](CO)[C@@H](O)[C@H]2O)n1 | 0.004 | 16 | 4 |  | 
CCc1cc2cc(-c3c(C)nc(NCC(F)(F)F)nc3N[C@@H]3C[C@H](CO)[C@@H](O)[C@H]3O)oc2cn1 | 0.02 | 15 | 13 |  | 
CCc1cc2cc(-c3c(C)nc(NCCCC(F)(F)F)nc3N[C@@H]3C[C@H](CO)[C@@H](O)[C@H]3O)oc2cn1 | 0.02 | > 25 | 17 |  | 
CCc1cc2cc(-c3c(C)nc(NCc4cc(OC)cc(OC)c4)nc3N[C@@H]3C[C@H](CO)[C@@H](O)[C@H]3O)oc2cn1 | 0.003 | 20 | > 25 |  | 
CNc1nc(C)c(-c2cc3cc(OC)nc(C)c3o2)c(N[C@@H]2C[C@H](CO)[C@@H](O)[C@H]2O)n1 | 0.06 | 25 | > 25 |  | 
COc1cc2cc(-c3c(C)nc(NCC(C)(C)C)nc3N[C@@H]3C[C@H](CO)[C@@H](O)[C@H]3O)oc2c(C)n1 | 0.04 | 21 | 17 |  | 

SMILES | EC50 (Hepatitis C virus) [µM] | CC50 at 72 h [1] [µM] | CC50 at 72 h [2] [µM] | AUC(0-t) at 6 h [3] [µM·h] | liver concentration (Liver) [ng/g]
COc1cc(CNc2nc(C)c(-c3cc4cc(OC)nc(C)c4o3)c(N[C@@H]3C[C@H](CO)[C@@H](O)[C@H]3O)n2)cc(OC)c1 | 0.01 | 25 | > 25 |  | 
CCOc1cc2cc(-c3c(C)nc(NC)nc3N[C@@H]3C[C@H](CO)[C@@H](O)[C@H]3O)oc2c(C)n1 | 0.05 |  | > 25 |  | 
CCOc1cc2cc(-c3c(C)nc(NCC(C)(C)C)nc3N[C@@H]3C[C@H](CO)[C@@H](O)[C@H]3O)oc2c(C)n1 | 0.05 | 23 | 12 |  | 
CCOc1cc2cc(-c3c(C)nc(Nc4ccccc4)nc3N[C@@H]3C[C@H](CO)[C@@H](O)[C@H]3O)oc2c(C)n1 | 0.15 | 18 | 24 |  | 
CCOc1cc2cc(-c3c(C)nc(NCC4CC4)nc3N[C@@H]3C[C@H](CO)[C@@H](O)[C@H]3O)oc2c(C)n1 | 0.02 | 25 | 25 |  | 
CCOc1cc2cc(-c3c(C)nc(NCCOC)nc3N[C@@H]3C[C@H](CO)[C@@H](O)[C@H]3O)oc2c(C)n1 | 0.009 | > 25 | > 25 |  | 
CCOc1cc2cc(-c3c(C)nc(NCC(F)(F)F)nc3N[C@@H]3C[C@H](CO)[C@@H](O)[C@H]3O)oc2c(C)n1 | 0.02 | > 25 | > 25 |  | 
CCOc1cc2cc(-c3c(C)nc(NCc4cc(OC)cc(OC)c4)nc3N[C@@H]3C[C@H](CO)[C@@H](O)[C@H]3O)oc2c(C)n1 | 0.002 | > 25 | > 25 |  | 
COc1cc2cc(-c3c(C)nc(NCC(C)(C)C)nc3N[C@@H]3C[C@H](CO)[C@@H](O)[C@H]3O)oc2c(C)n1.Cl |  |  |  | 4.4 | 1180
CCc1cc2cc(-c3c(Cl)nc(N)nc3N[C@@H]3C[C@H](CO)[C@@H](O)[C@H]3O)oc2cn1.Cl |  |  |  | 0.07 | 
CCc1nccc2cc(-c3c(Cl)nc(N)nc3N[C@@H]3C[C@H](CO)[C@@H](O)[C@H]3O)oc12.Cl |  |  |  | 0.05 | 
CCc1cc2cc(-c3c(Cl)nc(N)nc3N[C@@H]3C[C@H](CO)[C@@H](O)[C@H]3O)oc2c(C)n1.Cl |  |  |  | 0.01 | 
CCc1cc2cc(-c3c(Cl)nc(N)nc3N[C@@H]3C[C@H](CO)[C@@H](O)[C@H]3O)oc2c(CC)n1.Cl |  |  |  | 0.17 | 
COc1cc2cc(-c3c(Cl)nc(N)nc3N[C@@H]3C[C@H](CO)[C@@H](O)[C@H]3O)oc2c(C)n1.Cl |  |  |  | 0.1 | 
CNc1nc(Cl)c(-c2cc3cc(OC)nc(C)c3o2)c(N[C@@H]2C[C@H](CO)[C@@H](O)[C@H]2O)n1.Cl |  |  |  | 6.5 | 274
CCc1cc2cc(-c3c(C)nc(NC)nc3N[C@@H]3C[C@H](CO)[C@@H](O)[C@H]3O)oc2cn1.Cl |  |  |  | 0.9 | 936
CCCCCNc1nc(C)c(-c2cc3cc(CC)ncc3o2)c(N[C@@H]2C[C@H](CO)[C@@H](O)[C@H]2O)n1.Cl |  |  |  | 0.48 | 31
CCc1cc2cc(-c3c(C)nc(NCC(C)C)nc3N[C@@H]3C[C@H](CO)[C@@H](O)[C@H]3O)oc2cn1.Cl |  |  |  | 4.5 | 251
CCc1cc2cc(-c3c(C)nc(NCC(C)(C)C)nc3N[C@@H]3C[C@H](CO)[C@@H](O)[C@H]3O)oc2cn1.Cl |  |  |  | 4 | 315
CCOCCNc1nc(C)c(-c2cc3cc(CC)ncc3o2)c(N[C@@H]2C[C@H](CO)[C@@H](O)[C@H]2O)n1.Cl |  |  |  | 1.2 | 492
CCc1cc2cc(-c3c(C)nc(NCCCC(F)(F)F)nc3N[C@@H]3C[C@H](CO)[C@@H](O)[C@H]3O)oc2cn1.Cl |  |  |  | 0.9 | 1000
CCc1cc2cc(-c3c(C)nc(NCc4cc(OC)cc(OC)c4)nc3N[C@@H]3C[C@H](CO)[C@@H](O)[C@H]3O)oc2cn1.Cl |  |  |  | 0.1 | 20
CNc1nc(C)c(-c2cc3cc(OC)nc(C)c3o2)c(N[C@@H]2C[C@H](CO)[C@@H](O)[C@H]2O)n1.Cl |  |  |  | 2.7 | 310

Source: ChEMBL document CHEMBL2057163, “Pyridofuran substituted pyrimidine derivatives as HCV replication (replicase) inhibitors” (Bioorg Med Chem Lett, 2012)
